According to article PMC8710044 (Biochemical pharmacology, 2021):

How the values were obtained:
Assay type in all cases: in vitro ADME
CYP2C8 [1] = target: T1, CYP2C8 (Homo sapiens, UniProt P10632); assay: Steady-state kinetics of overall NSAID metabolism
T1 sequence (P10632 1-490): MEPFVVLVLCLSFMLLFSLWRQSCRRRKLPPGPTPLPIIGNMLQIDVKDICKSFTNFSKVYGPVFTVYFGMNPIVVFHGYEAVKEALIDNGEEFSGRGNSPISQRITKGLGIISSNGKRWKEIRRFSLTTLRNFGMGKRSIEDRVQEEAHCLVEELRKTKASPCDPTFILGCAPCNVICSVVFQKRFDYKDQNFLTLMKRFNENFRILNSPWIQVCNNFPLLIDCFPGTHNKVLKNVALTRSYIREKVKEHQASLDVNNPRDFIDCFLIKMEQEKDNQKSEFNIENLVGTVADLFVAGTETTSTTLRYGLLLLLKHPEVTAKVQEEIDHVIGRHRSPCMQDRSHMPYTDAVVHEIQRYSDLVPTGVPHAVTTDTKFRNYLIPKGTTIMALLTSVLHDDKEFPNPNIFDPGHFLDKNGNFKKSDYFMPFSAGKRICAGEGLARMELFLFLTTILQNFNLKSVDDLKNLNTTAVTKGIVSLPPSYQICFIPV

CYP2C19 [2] = target: T2, CYP2C19 (Homo sapiens, UniProt P33261); assay: Steady-state kinetics of overall NSAID metabolism
T2 sequence (P33261 whole entry): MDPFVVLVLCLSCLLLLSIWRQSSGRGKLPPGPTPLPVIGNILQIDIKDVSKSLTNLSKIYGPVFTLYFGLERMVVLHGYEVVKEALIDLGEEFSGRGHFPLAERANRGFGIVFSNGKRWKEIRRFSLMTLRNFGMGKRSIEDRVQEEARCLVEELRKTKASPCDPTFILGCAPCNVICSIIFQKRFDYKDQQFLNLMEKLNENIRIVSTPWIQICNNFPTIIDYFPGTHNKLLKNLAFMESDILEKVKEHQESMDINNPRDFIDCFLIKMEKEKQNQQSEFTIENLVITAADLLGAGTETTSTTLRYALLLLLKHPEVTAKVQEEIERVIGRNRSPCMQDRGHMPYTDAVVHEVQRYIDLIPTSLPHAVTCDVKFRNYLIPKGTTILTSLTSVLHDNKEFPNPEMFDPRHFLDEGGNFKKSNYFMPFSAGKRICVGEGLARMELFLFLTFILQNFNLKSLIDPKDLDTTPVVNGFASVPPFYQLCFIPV

CYP3A4 [3] = target: T3, CYP3A4 (Homo sapiens, UniProt P08684); assay: Steady-state kinetics of overall NSAID metabolism
T3 sequence (P08684 whole entry): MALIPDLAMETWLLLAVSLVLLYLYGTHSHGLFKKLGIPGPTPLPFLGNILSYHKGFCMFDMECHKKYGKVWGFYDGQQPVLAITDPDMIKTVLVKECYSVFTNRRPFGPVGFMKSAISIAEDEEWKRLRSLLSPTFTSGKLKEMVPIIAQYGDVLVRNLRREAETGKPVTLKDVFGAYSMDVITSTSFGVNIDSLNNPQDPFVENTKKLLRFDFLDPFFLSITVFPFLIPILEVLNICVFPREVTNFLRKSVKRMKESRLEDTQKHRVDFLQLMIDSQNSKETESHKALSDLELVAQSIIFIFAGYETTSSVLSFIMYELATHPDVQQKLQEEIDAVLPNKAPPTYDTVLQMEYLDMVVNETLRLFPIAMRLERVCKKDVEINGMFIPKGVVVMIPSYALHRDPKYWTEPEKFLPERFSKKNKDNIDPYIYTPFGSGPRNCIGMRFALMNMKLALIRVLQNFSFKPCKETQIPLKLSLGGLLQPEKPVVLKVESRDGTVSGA

CYP2C8 [4] = target: T1, CYP2C8; assay: Relative CYP contribution to hepatic bioactivation and detoxification, CYP2C8
CYP2C9 = CYP2C9 (Homo sapiens, UniProt P11712); assay: Relative CYP contribution to hepatic bioactivation and detoxification, CYP2C9
Chain of CYP2C9 (P11712 whole entry): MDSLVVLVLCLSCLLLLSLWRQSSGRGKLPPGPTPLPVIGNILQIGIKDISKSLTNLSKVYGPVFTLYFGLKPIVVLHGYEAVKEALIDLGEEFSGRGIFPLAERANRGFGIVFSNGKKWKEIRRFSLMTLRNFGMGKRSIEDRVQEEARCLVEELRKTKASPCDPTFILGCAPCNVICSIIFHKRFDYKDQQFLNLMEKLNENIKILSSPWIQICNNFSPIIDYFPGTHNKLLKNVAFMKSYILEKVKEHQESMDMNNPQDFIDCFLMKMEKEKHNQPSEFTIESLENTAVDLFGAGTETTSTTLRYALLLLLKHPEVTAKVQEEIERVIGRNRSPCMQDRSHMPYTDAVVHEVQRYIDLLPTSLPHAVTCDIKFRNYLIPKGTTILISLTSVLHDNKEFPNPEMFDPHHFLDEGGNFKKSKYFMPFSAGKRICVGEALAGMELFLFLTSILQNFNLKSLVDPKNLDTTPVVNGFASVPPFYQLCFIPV

CYP2C19 [5] = target: T2, CYP2C19; assay: Relative CYP contribution to hepatic bioactivation and detoxification, CYP2C19
CYP3A4 [6] = target: T3, CYP3A4; assay: Relative CYP contribution to hepatic bioactivation and detoxification, CYP3A4

Structure (SMILES): O=C(O)Cc1ccccc1Nc1c(Cl)cccc1Cl [DIC, diclofenac]
- Km at 60 min (CYP2C8 [1]; human, recombinant CYP2C8 Supersomes, pH 7.4): 83 µM
- Vmax (CYP2C8 [1]; overall metabolism (depletion) by CYP2C8, 95% CI in parentheses): 1240 (1170–1320) pmol/min/nmol protein
- Km at 60 min (CYP2C19 [2]; human, recombinant CYP2C19 Supersomes, pH 7.4): 70.5 µM
- Vmax (CYP2C19 [2]; overall metabolism (depletion) by CYP2C19, 95% CI in parentheses): 1940 (1840–2040) pmol/min/nmol protein
- Km at 60 min (CYP3A4 [3]; human, recombinant CYP3A4 Supersomes, pH 7.4): 130 µM
- Vmax (CYP3A4 [3]; overall metabolism (depletion) by CYP3A4, 95% CI in parentheses): 5480 (5090–5930) pmol/min/nmol protein
- Bioactivation Percent (CYP2C8 [4]; CYP2C8 contribution to total CLbioact of the NSAID): 0%
- Detoxification Percent (CYP2C8 [4]; CYP2C8 contribution to total CLdetox of the NSAID): 6.5%
- Bioactivation Percent (CYP2C9; CYP2C9 contribution to total CLbioact of the NSAID): 97.9%
- Detoxification Percent (CYP2C9; CYP2C9 contribution to total CLdetox of the NSAID): 12.0%
- Bioactivation Percent (CYP2C19 [5]; CYP2C19 contribution to total CLbioact of the NSAID): 1.0%
- Detoxification Percent (CYP2C19 [5]; CYP2C19 contribution to total CLdetox of the NSAID): 5.5%
- Bioactivation Percent (CYP3A4 [6]; CYP3A4 contribution to total CLbioact of the NSAID): 1.1%
- Detoxification Percent (CYP3A4 [6]; CYP3A4 contribution to total CLdetox of the NSAID): 75.9%
